Source: patent US20230019491A1, “PYRIMIDINE TBK/IKKe INHIBITOR COMPOUNDS AND USES THEREOF” (Merck Patent GmbH, priority 2017, published 2023)
Counter-ions that a name gives are not always drawn.

Legend:
TBK1 = target: T1, TBK1 (Homo sapiens, UniProt Q9UHD2); experiment: TBK biochemical assay; settings: 10 point 1:4 dose response, 30 uM top concentration, 90 min at 25° C., LabChip EZ Reader II; read-out: TBK1_IC50
T1 sequence (Q9UHD2 1-729): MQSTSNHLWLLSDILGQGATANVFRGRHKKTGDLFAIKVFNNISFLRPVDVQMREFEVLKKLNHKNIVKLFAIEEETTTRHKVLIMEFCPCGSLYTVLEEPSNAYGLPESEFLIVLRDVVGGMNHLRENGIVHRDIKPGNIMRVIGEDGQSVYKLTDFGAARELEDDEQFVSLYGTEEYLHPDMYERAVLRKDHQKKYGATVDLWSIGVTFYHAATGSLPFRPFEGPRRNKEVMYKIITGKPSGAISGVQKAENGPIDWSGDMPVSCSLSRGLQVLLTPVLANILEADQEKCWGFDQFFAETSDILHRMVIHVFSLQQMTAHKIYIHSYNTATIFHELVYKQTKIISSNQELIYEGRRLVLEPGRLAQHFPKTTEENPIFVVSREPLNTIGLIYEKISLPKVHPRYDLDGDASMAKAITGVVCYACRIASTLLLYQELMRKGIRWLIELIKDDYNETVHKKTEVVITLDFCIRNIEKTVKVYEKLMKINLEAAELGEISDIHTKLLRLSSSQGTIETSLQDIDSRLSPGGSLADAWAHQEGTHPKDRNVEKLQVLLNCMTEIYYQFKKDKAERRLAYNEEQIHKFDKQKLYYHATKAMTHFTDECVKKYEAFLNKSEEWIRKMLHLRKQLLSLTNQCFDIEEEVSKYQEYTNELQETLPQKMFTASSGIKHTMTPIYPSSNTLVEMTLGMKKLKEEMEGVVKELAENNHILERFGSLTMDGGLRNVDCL
How it was run: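 Read-out was a Caliper LabChip mobility-shift assay, run after a 90-min, 25 °C reaction of TBK1 with substrate and compounds, quenched with stop buffer. Control wells received staurosporine at 10 uM final.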

IKKε = target: T2, IKKε (Homo sapiens, UniProt Q14164); experiment: IKKε biochemical assay; settings: 10 point 1:4 dose response, 30 uM top concentration, 90 min at 25° C., LabChip EZ Reader II; read-out: IKKε_IC50
T2 sequence (Q14164 1-716): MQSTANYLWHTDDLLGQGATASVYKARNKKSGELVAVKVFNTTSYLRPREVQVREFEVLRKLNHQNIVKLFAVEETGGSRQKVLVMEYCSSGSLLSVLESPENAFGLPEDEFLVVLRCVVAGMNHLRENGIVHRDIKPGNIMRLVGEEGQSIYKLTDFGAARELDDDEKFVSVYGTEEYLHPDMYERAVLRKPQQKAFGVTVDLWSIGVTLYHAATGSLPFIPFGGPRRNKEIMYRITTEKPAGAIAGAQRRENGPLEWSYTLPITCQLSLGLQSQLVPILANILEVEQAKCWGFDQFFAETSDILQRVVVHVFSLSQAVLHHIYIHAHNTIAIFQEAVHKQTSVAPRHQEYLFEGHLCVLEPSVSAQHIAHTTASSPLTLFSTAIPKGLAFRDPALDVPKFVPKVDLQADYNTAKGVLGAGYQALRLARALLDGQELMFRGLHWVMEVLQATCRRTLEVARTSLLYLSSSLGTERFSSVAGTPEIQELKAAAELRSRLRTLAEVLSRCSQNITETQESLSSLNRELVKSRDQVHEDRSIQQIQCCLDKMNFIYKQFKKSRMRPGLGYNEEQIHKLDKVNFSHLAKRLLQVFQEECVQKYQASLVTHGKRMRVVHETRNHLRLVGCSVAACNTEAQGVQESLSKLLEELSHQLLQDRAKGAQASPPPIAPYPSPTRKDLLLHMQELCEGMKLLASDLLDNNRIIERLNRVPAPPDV
How it was run: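 Mobility-shift LabChip read-out followed a 90 min, 25° C. reaction of IKKε with substrate and test compound, with DMSO held at 1% final. Reactions were ended with stop buffer. Wells with 10 uM final staurosporine defined complete inhibition, and DMSO-only wells the uninhibited level.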

| IC50 (TBK1) | IC50 (IKKε) | Structure (SMILES) |
| --- | --- | --- |
| < 100 nM | < 100 nM | COc1nc(Nc2nccc(-c3ccc(OC4CCN(C(=O)c5cocn5)CC4)c(C#N)c3)n2)ccc1C(=O)N(C)C [Example 77, 6-([4-[3-cyano-4-([1-[(1,3-oxazol-4-yl)carbonyl]piperidin-4-yl]oxy)phenyl]pyrimidin-2-yl]amino)-2-methoxy-N,N-dimethylpyridine-3-carboxamide] |
| < 100 nM | < 100 nM | COc1nc(Nc2nccc(-c3ccc(OC4CCN(C(=O)c5n[nH]c(C)n5)CC4)c(C#N)c3)n2)ccc1C(=O)N(C)C [Example 78, 6-([4-[3-cyano-4-([1-[(5-methyl-1H-1,2,4-triazol-3-yl)carbonyl]piperidin-4-yl]oxy)phenyl]pyrimidin-2-yl]amino)-2-methoxy-N,N-dimethylpyridine-3-carboxamide] |
| < 100 nM | < 100 nM | COc1nc(Nc2nccc(-c3ccc(OC4CCN(C(=O)c5cnco5)CC4)c(C#N)c3)n2)ccc1C(=O)N(C)C [Example 79, 6-([4-[3-cyano-4-([1-[(1,3-oxazol-5-yl)carbonyl]piperidin-4-yl]oxy)phenyl]pyrimidin-2-yl]amino)-2-methoxy-N,N-dimethylpyridine-3-carboxamide] |
| 1000 to 5000 nM | 1000 to 5000 nM | CN1CCN(c2ccc(Nc3nccc(-c4ccc(OC5CN(C)C5)c(C#N)c4)n3)nc2)CC1 [Example 81, 2-[(1-methylazetidin-3-yl)oxy]-5-(2-[[5-(4-methylpiperazin-1-yl)pyridin-2-yl]amino]pyrimidin-4-yl)benzonitrile] |
| > 5000 nM | 1000 to 5000 nM | CN1CCN(c2ccc(Nc3nccc(-c4ccc(OC5CCN(C)C5)c(C#N)c4)n3)nc2)CC1 (stereo not drawn) [Example 82, 5-(2-[[5-(4-methylpiperazin-1-yl)pyridin-2-yl]amino]pyrimidin-4-yl)-2-[(1-methylpyrrolidin-3-yl)oxy]benzonitrile hydrochloride] |
| > 5000 nM | 1000 to 5000 nM | CN1CCC(Oc2ccc(-c3ccnc(Nc4ccc(N5CCN(C)CC5)cn4)n3)cc2C#N)CC1 [Example 83, 5-(2-[[5-(4-methylpiperazin-1-yl)pyridin-2-yl]amino]pyrimidin-4-yl)-2-[(1-methylpiperidin-4-yl)oxy]benzonitrile] |
| 100 to 1000 nM | < 100 nM | CN1CCN(c2ccc(Nc3nccc(-c4ccc(O[C@H]5CCN(C)C[C@H]5F)c(C#N)c4)n3)nc2)CC1 [Example 84, 2-[[(3R,4S)-3-fluoro-1-methylpiperidin-4-yl]oxy]-5-(2-[[5-(4-methylpiperazin-1-yl)pyridin-2-yl]amino]pyrimidin-4-yl)benzonitrile] |
| 100 to 1000 nM | 100 to 1000 nM | CN1CCN(c2ccc(Nc3nccc(-c4ccc(OC5CCN(C)CC5(F)F)c(C#N)c4)n3)nc2)CC1 (stereo not drawn) [Example 85, 2-[(3,3-difluoro-1-methylpiperidin-4-yl)oxy]-5-(2-[[5-(4-methylpiperazin-1-yl)pyridin-2-yl]amino]pyrimidin-4-yl)benzonitrile] |
| 100 to 1000 nM | 100 to 1000 nM | COc1nc(Nc2nccc(-c3ccc(OC4CN(C)C4)c(C#N)c3)n2)ccc1N1CCN(C)CC1 [Example 86, 5-(2-[[6-methoxy-5-(4-methylpiperazin-1-yl)pyridin-2-yl]amino]pyrimidin-4-yl)-2-[(1-methylazetidin-3-yl)oxy]benzonitrile] |
| < 100 nM | < 100 nM | COc1nc(Nc2nccc(-c3ccc(OC4CCN(C)C4)c(C#N)c3)n2)ccc1N1CCN(C)CC1 (stereo not drawn) [Example 87, 5-(2-[[6-methoxy-5-(4-methylpiperazin-1-yl)pyridin-2-yl]amino]pyrimidin-4-yl)-2-[(1-methylpyrrolidin-3-yl)oxy]benzonitrile] |
| 100 to 1000 nM | 100 to 1000 nM | COc1nc(Nc2nccc(-c3ccc(OC4CCN(C)CC4)c(C#N)c3)n2)ccc1N1CCN(C)CC1 [Example 88, 5-(2-[[6-methoxy-5-(4-methylpiperazin-1-yl)pyridin-2-yl]amino]pyrimidin-4-yl)-2-[(1-methylpiperidin-4-yl)oxy]benzonitrile] |
| < 100 nM | < 100 nM | COc1nc(Nc2nccc(-c3ccc(OC4CCNCC4)c(C#N)c3)n2)ccc1N1CCN(C)CC1 [Example 89, 5-(2-[[6-methoxy-5-(4-methylpiperazin-1-yl)pyridin-2-yl]amino]pyrimidin-4-yl)-2-(piperidin-4-yloxy)benzonitrile] |
| < 100 nM | < 100 nM | COc1nc(Nc2nccc(-c3ccc(OC4CCN(C(=O)CO)CC4)c(C#N)c3)n2)ccc1N1CCN(C)CC1 [Example 90, 2-[[1-(2-hydroxyacetyl)piperidin-4-yl]oxy]-5-(2-[[6-methoxy-5-(4-methylpiperazin-1-yl)pyridin-2-yl]amino]pyrimidin-4-yl)benzonitrile] |
| < 100 nM | < 100 nM | COc1nc(Nc2nccc(-c3ccc(OC4CCN(C(=O)C(C)O)CC4)c(C#N)c3)n2)ccc1N1CCN(C)CC1 (stereo not drawn) [Example 91, 2-[[1-(2-hydroxypropanoyl)piperidin-4-yl]oxy]-5-(2-[[6-methoxy-5-(4-methylpiperazin-1-yl)pyridin-2-yl]amino]pyrimidin-4-yl)benzonitrile hydrochloride] |
| < 100 nM | < 100 nM | COc1nc(Nc2nccc(-c3ccc(OC4CCN(C(=O)c5cnco5)CC4)c(C#N)c3)n2)ccc1N1CCN(C)CC1 [Example 92, 5-(2-[[6-methoxy-5-(4-methylpiperazin-1-yl)pyridin-2-yl]amino]pyrimidin-4-yl)-2-([1-[(1,3-oxazol-5-yl)carbonyl]piperidin-4-yl]oxy)benzonitrile] |
| < 100 nM | < 100 nM | COc1nc(Nc2nccc(-c3ccc(OC4CCN(C(=O)c5cocn5)CC4)c(C#N)c3)n2)ccc1N1CCN(C)CC1 [Example 93, 5-(2-[[6-methoxy-5-(4-methylpiperazin-1-yl)pyridin-2-yl]amino]pyrimidin-4-yl)-2-([1-[(1,3-oxazol-4-yl)carbonyl]piperidin-4-yl]oxy)benzonitrile] |
| < 100 nM | < 100 nM | COc1nc(Nc2nccc(-c3ccc(OC4CCN(C(=O)c5n[nH]c(C)n5)CC4)c(C#N)c3)n2)ccc1N1CCN(C)CC1 [Example 94, 5-(2-[[6-methoxy-5-(4-methylpiperazin-1-yl)pyridin-2-yl]amino]pyrimidin-4-yl)-2-([1-[(5-methyl-1H-1,2,4-triazol-3-yl)carbonyl]piperidin-4-yl]oxy)benzonitrile] |
| < 100 nM | < 100 nM | COc1nc(Nc2nccc(-c3ccc(O[C@H]4CCNC[C@H]4F)c(C#N)c3)n2)ccc1N1CCN(C)CC1 [Example 95] |
| < 100 nM | < 100 nM | COc1nc(Nc2nccc(-c3ccc(O[C@H]4CCN(C)C[C@H]4F)c(C#N)c3)n2)ccc1N1CCN(C)CC1 [Example 96, 2-(((3R,4S)-3-fluoro-1-methylpiperidin-4-yl)oxy)-5-(2-((6-methoxy-5-(4-methylpiperazin-1-yl)pyridin-2-yl)amino)pyrimidin-4-yl)benzonitrile] |
| < 100 nM | < 100 nM | COc1nc(Nc2nccc(-c3ccc(OC4CCNCC4(F)F)c(C#N)c3)n2)ccc1N1CCN(C)CC1 (stereo not drawn) [Example 97, 2-[(3,3-difluoropiperidin-4-yl)oxy]-5-(2-[[6-methoxy-5-(4-methylpiperazin-1-yl)pyridin-2-yl]amino]pyrimidin-4-yl)benzonitrile] |
| < 100 nM | < 100 nM | COc1nc(Nc2nccc(-c3ccc(OC4CCN(C)CC4(F)F)c(C#N)c3)n2)ccc1N1CCN(C)CC1 (stereo not drawn) [Example 98, 2-[(3,3-difluoro-1-methylpiperidin-4-yl)oxy]-5-(2-[[6-methoxy-5-(4-methylpiperazin-1-yl)pyridin-2-yl]amino]pyrimidin-4-yl)benzonitrile] |
